# Entries after “also recorded” stand apart in the source; their conditions may differ.
# What was measured:
# fetal hemoglobin = assay: circulating fetal hemoglobin levels in phase II clinical trial patients (CTCL and PTCL); assay type: in vivo, human; details: at least two months, 44 patients evaluated
# Method: As part of an ongoing phase II clinical trial into the effects of romidepsin in patients with cutaneous (CTCL) and peripheral (PTCL) T-cell lymphoma, the levels of circulating fetal hemoglobin were determined. From a total of 53 patients in the trial, 44 were evaluated. Romidepsin was administered as a 4 hour infusion on days 1, 8, and 15 of a 28 day cycle with a dose of 14 mg/m^2. Fetal hemoglobin levels were measured during at least two months of treatment with romidepsin. Fetal hemoglobin levels were expressed first as a percent of the patient's total hemoglobin and then corrected (by multiplying the total hemoglobin by percent fetal hemoglobin).
# [1] = test system: human β globin gene expression; assay: erythroid colony forming unit (CFUe) assay, real-time PCR of human β globin gene expression; assay type: cell-based; details: 0.185 nM or 1.85 nM; relative to mouse α levels and control
# Method: (§1) Experiments were performed with mice that are transgenic for a yeast artificial chromosome that contains the full human β-globin locus. […] However mice do have the appropriate transcription factors to interpret and express the human globin locus.
# (§2) To determine if romidepsin alters human globin expression erythroid colony forming unit assays were conducted. This involved extracting fetal liver cells from the developing embryo, at a time when both γ and β globin are expressed. Cells were then cultured in a semi-solid media (methyl-cellulose) containing growth factors (SCF and Epo) with or without romidepsin. We harvested CFUe colonies at 2 days of culture (a pool of 10 from each treatment, each treatment was performed in duplicate) and performed an immediate cell lysis and cDNA amplification. The cDNA was then subjected to real-time PCR to determine levels of mouse α, human γ and human β globin gene expression. The cells were treated with a range of romidepsin concentrations from 0.185 nM to 18.5 nM, and the colony assay was performed on 6 separate occasions.
# (§3) The results (0.185 nM or 1.85 nM romidepsin) are presented in FIG. 1 relative to mouse α levels, and relative to the control performed in each particular experiment. […] When the 0.185 nM and 1.85 nM data are combined there is a 130-fold increase in γ globin expression, as compared to mouse α globin expression and untreated cells.
# fetal liver cells = assay: toxicity analysis of CFUe colonies (number and size of colonies); assay type: cell-based, mouse
# Method: as §2
# Each colony was also analyzed for toxicity effects. […] Thus globin analysis at this dose is not presented.
# [2] = test system: human γ globin gene expression; assay: erythroid colony forming unit (CFUe) assay, real-time PCR of human γ globin gene expression; assay type: cell-based, mouse
# Method: as §1, §2, §3
# [3] = fold increase in fetal hemoglobin 0-2, 14 mg/m^2 4 hour infusion days 1, 8, 15 of 28 day cycle
# [4] = fold increase in fetal hemoglobin 2-5, 14 mg/m^2
# [5] = fold increase in fetal hemoglobin 5-10, 14 mg/m^2
# [6] = fold increase in fetal hemoglobin 10-20, 14 mg/m^2
# [7] = fold increase in fetal hemoglobin >2, 14 mg/m^2
# [8] = fold increase in fetal hemoglobin >5, 14 mg/m^2
# [9] = fold increase in fetal hemoglobin >10, 14 mg/m^2
# [10] = fold increase in fetal hemoglobin >20, 14 mg/m^2
structure (smiles),measurement,setting,value
"C/C=C1\NC(=O)[C@H]2CSSCC/C=C/[C@H](CC(=O)N[C@H](C(C)C)C(=O)N2)OC(=O)[C@H](C(C)C)NC1=O [romidepsin, (1S,4S,10S,16E,21R)-7-[(2Z)-ethylidene]-4,21-diisopropyl-2-oxa-12,13-dithia-5,8,20,23-tetraazabicyclo[8.7.6]tricos-16-ene-3,6,9,19,22-pentanone]",% of patients,fetal hemoglobin; [3],23%
same,Number of patients,fetal hemoglobin; [3],10
same,% of patients,fetal hemoglobin; [4],23%
same,Number of patients,fetal hemoglobin; [4],10
same,% of patients,fetal hemoglobin; [5],20%
same,Number of patients,fetal hemoglobin; [5],9
same,% of patients,fetal hemoglobin; [6],23%
same,Number of patients,fetal hemoglobin; [6],10
same,% of patients,fetal hemoglobin; [7],77%
same,Number of patients,fetal hemoglobin; [7],34
same,% of patients,fetal hemoglobin; [8],55%
same,Number of patients,fetal hemoglobin; [8],24
same,% of patients,fetal hemoglobin; [9],34%
same,Number of patients,fetal hemoglobin; [9],15
same,% of patients,fetal hemoglobin; [10],11%
same,Number of patients,fetal hemoglobin; [10],5
same,β globin gene expression following romidepsin treatment,[1],not affected; also recorded: no change
same,total number of colonies or size of CFUe,fetal liver cells; 0.185 nM and 1.85 nM,no differences
same,toxicity to the fetal liver cells,"fetal liver cells; 18.5 nM, accurate data not gathered",toxic
same,fold increase in γ globin expression,"[2]; 0.185 nM and 1.85 nM data combined, compared to mouse α globin expression and untreated cells, transgenic fetal liver CFUe colonies, 2 days of culture, mean±SEM, n=6",130 fold
same,γ globin gene expression following romidepsin treatment,"[2]; 0.185 nM or 1.85 nM, relative to mouse α levels and control",increase; also recorded: up-regulation
same,expression of human globin at the highest doses,[2]; highest doses of romidepsin,lower
